According to PubChem BioAssay (NCI):
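Exposure lasted 48 hours, with cells grown in 96-well plates and compounds tested at five concentrations. TGI: concentration producing complete growth inhibition.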

What was measured:
Assay in all cases: growth of human tumour cells (NCI), 48 h
[1] = tested on: 786-0 renal
[2] = tested on: A498 renal
[3] = tested on: A549 NSCLC
[4] = tested on: ACHN renal
[5] = tested on: BT-549 breast
[6] = tested on: CAKI-1 renal
[7] = tested on: CCRF-CEM leukemia
[8] = tested on: COLO 205 colon
[9] = tested on: DU-145 prostate
[10] = tested on: EKVX NSCLC
[11] = tested on: HCC-2998 colon
[12] = tested on: HCT-116 colon
[13] = tested on: HCT-15 colon
[14] = tested on: HL-60(TB) leukemia
[15] = tested on: HOP-62 NSCLC
[16] = tested on: HOP-92 NSCLC
[17] = tested on: HS 578T breast
[18] = tested on: HT29 colon
[19] = tested on: IGROV1 ovarian
[20] = tested on: K-562 leukemia
[21] = tested on: KM12 colon
[22] = tested on: LOX IMVI melanoma
[23] = tested on: M14 melanoma
[24] = tested on: MALME-3M melanoma
[25] = tested on: MCF7 breast
[26] = tested on: MDA-MB-231 breast
[27] = tested on: MDA-MB-435
[28] = tested on: MOLT-4 leukemia
[29] = tested on: NCI-H226 lung
[30] = tested on: NCI-H23 lung
[31] = tested on: NCI-H460 lung
[32] = tested on: NCI-H522 lung
[33] = tested on: NCI/ADR-RES ovarian
[34] = tested on: OVCAR-3 ovarian
[35] = tested on: OVCAR-4 ovarian
[36] = tested on: OVCAR-5 ovarian
[37] = tested on: OVCAR-8 ovarian
[38] = tested on: PC-3 prostate
[39] = tested on: RPMI-8226 leukemia
[40] = tested on: RXF 393 renal
[41] = tested on: SF-268 CNS
[42] = tested on: SF-295 CNS
[43] = tested on: SK-MEL-2 melanoma
[44] = tested on: SK-MEL-28 melanoma
[45] = tested on: SK-MEL-5 melanoma
[46] = tested on: SK-OV-3 ovarian
[47] = tested on: SN12C renal
[48] = tested on: SNB-19 CNS
[49] = tested on: SNB-75 CNS
[50] = tested on: SR leukemia
[51] = tested on: SW-620 colon
[52] = tested on: T-47D breast
[53] = tested on: U251 CNS
[54] = tested on: UACC-257 melanoma
[55] = tested on: UACC-62 melanoma
[56] = tested on: UO-31 renal

Measured: TGI

CC1(C)CCCCCC(C)(CCCO)C1=O (stereo unspecified)
> 100 µM: all assays above
